Laboratory results taken from article PMC8286840, “Identifying SARS-CoV-2 antiviral compounds by screening for small molecule inhibitors of Nsp3 papain-like protease” (Biochemical Journal, 2021).
Where a name gives a salt, the structure may show the parent alone. Read-outs that look alike come from different tables or passages of the source.

What was measured:
[1] = molecular target: T1, SARS-CoV-2 PLpro (nsp3 1564–1878) (Severe acute respiratory syndrome coronavirus 2, UniProt P0DTD1); assay: biochemical; set-up: FRET-quenched peptide (Pro3) cleavage by PLpro, 10 min pre-incubation, slope over 20 min, normalised to no-compound control; settings: read-out: % of control remaining
[2] = molecular target: T1, SARS-CoV-2 PLpro (nsp3 1564–1878); assay: biochemical; set-up: FRET-quenched peptide (Pro3) cleavage by PLpro, 10 min pre-incubation, slope over 20 min, normalised to no-compound control; settings: read-out: % of control remaining; remark: listed apart in the source
Experimental: The plates were organized with columns 3–22 containing the compounds; the remaining columns were used for reaction controls including substrate only and substrate with enzyme but no compound (Figure 3Aii). The PLpro enzyme was pre-incubated with the compounds for 10 min, and then the reaction was initiated by the addition of substrate. […] We incubated the inhibitors with PLpro before the enzymatic reaction so that the slow-binding inhibitors will not be missed out [21]. […] Fluorescence was read on a Spark multimode microplate reader (Tecan) with an excitation wavelength at 330 nm and emission wavelength at 420 nm. […] An amount of 5 µl of the enzyme was pre-incubated with compounds for 10 min before the addition of 15 µl substrate. Fluorescence was monitored at 2 min for 20 min with 3 min intervals giving a total of seven readings.

SMILES: CCCCCCCCCCCCC/C=C/[C@@H](O)[C@H](CO)NC(=O)CCCCCCCCCCCCCCC [C16 Ceramide]
- remaining activity at 3.75 µM ([1]; Well no.=4397, high concentration screen): 101%
- remaining activity at 1.25 µM ([2]; Well no.=4397, low concentration screen): 101%

SMILES: Clc1cccc(N2CCNCC2)c1 [1-(3-Chlorophenyl)piperazine dihydrochloride]
- remaining activity at 3.75 µM ([1]; Well no.=36, high concentration screen): 104%
- remaining activity at 1.25 µM ([2]; Well no.=36, low concentration screen): 106%

SMILES: C[C@@H]1O[C@@H](Oc2c(-c3ccc(O)c(O)c3)oc3cc(O)cc(O)c3c2=O)[C@H](O)[C@H](O)[C@H]1O [Quercitrin]
- remaining activity at 3.75 µM ([1]; Well no.=3112, high concentration screen): 96.5%
- remaining activity at 1.25 µM ([2]; Well no.=3112, low concentration screen): 96.4%

SMILES: COC(=O)[C@@H](N)Cc1ccc(O)c(O)c1 [L-3,4-Dihydroxyphenylalanine methyl ester hydrochloride]
- remaining activity at 3.75 µM ([1]; Well no.=541, high concentration screen): 103%
- remaining activity at 1.25 µM ([2]; Well no.=541, low concentration screen): 103%

SMILES: O=P(O)(O)C(O)(Cn1ccnc1)P(=O)(O)O [Zoledronic acid]
- remaining activity at 3.75 µM ([1]; Well no.=1881, high concentration screen): 97.1%
- remaining activity at 3.75 µM ([1]; Well no.=5578, high concentration screen): 98.1%
- remaining activity at 1.25 µM ([2]; Well no.=1881, low concentration screen): 100%
- remaining activity at 1.25 µM ([2]; Well no.=5578, low concentration screen): 102%

SMILES: CCCCc1nc(C)c(CC(=S)N(C)C)c(=O)n1Cc1ccc(-c2ccccc2-c2nnn[nH]2)cc1 [Fimasartan]
- remaining activity at 3.75 µM ([1]; Well no.=6183, high concentration screen): 103%
- remaining activity at 1.25 µM ([2]; Well no.=6183, low concentration screen): 107%

SMILES: CCN1C[C@]2(COC)[C@H](O)C[C@H](OC)[C@@]34[C@@H]5C[C@@]6(O)[C@H](OC(=O)c7ccccc7)[C@@H]5[C@@](OC(C)=O)([C@@H]([C@H](OC)[C@H]23)[C@@H]14)[C@@H](O)[C@@H]6OC [Aconitine]
- remaining activity at 3.75 µM [1]: 98.5%
- remaining activity at 1.25 µM [2]: 96%

SMILES: Cc1c(-c2ccccc2)oc2c(C(=O)OCCN3CCCCC3)cccc2c1=O [Flavoxate (hydrochloride)]
- remaining activity at 3.75 µM ([1]; Well no.=6803, high concentration screen): 94.8%
- remaining activity at 1.25 µM ([2]; Well no.=6803, low concentration screen): 94.8%

SMILES: CC(C)=CCc1cc2c(cc1O)oc(=O)c1c3ccc(O)cc3oc21 [3,9-dihydroxy-2-(3-methyl-2-butenyl)-6H-[1]benzofuro[3,2-c]chromen-6-one]
- remaining activity at 3.75 µM ([1]; Well no.=6091, high concentration screen): 87.9%
- remaining activity at 1.25 µM ([2]; Well no.=6091, low concentration screen): 95.4%

SMILES: N[C@@H](Cc1ccc(O)c(O)c1)C(=O)O [Levodopa]
- remaining activity at 3.75 µM ([1]; Well no.=2264, high concentration screen): 95.2%
- remaining activity at 1.25 µM ([2]; Well no.=2264, low concentration screen): 93.8%

SMILES: CC1(C)O[C@@H]2C[C@H]3[C@@H]4CCC5=CC(=O)C=C[C@]5(C)[C@H]4[C@@H](O)C[C@]3(C)[C@]2(C(=O)CO)O1 [Desonide]
- remaining activity at 3.75 µM ([1]; Well no.=5339, high concentration screen): 84.9%
- remaining activity at 3.75 µM ([1]; Well no.=8291, high concentration screen): 96%
- remaining activity at 1.25 µM ([2]; Well no.=5339, low concentration screen): 95.1%
- remaining activity at 1.25 µM ([2]; Well no.=8291, low concentration screen): 99.7%

SMILES: COc1ccccc1N1CCN(CCN(C(=O)c2ccc(F)cc2)c2ccccn2)CC1 [p-MPPF dihydrochloride]
- remaining activity at 3.75 µM ([1]; Well no.=899, high concentration screen): 101%
- remaining activity at 1.25 µM ([2]; Well no.=899, low concentration screen): 100%

SMILES: COC(=O)[C@H]1[C@H]2C[C@H]3c4[nH]c5cc(OC)ccc5c4CCN3C[C@H]2C[C@@H](OC(=O)c2cc(OC)c(OC)c(OC)c2)[C@@H]1OC [(-)-Isoreserpine]
- remaining activity at 3.75 µM ([1]; Well no.=3246, high concentration screen): 100%
- remaining activity at 1.25 µM ([2]; Well no.=3246, low concentration screen): 102%

SMILES: O=c1cc(-c2ccccc2)oc2ccc(O)cc12 [6-Hydroxyflavone (6-HF)]
- remaining activity at 3.75 µM ([1]; Well no.=8104, high concentration screen): 98.5%
- remaining activity at 1.25 µM ([2]; Well no.=8104, low concentration screen): 98.9%

SMILES: COc1cc(CCN)ccc1O [3-Methoxytyramine]
- remaining activity at 3.75 µM ([1]; Well no.=6773, high concentration screen): 97.4%
- remaining activity at 1.25 µM ([2]; Well no.=6773, low concentration screen): 107%

SMILES: Nc1nc(F)nc2c1ncn2[C@@H]1O[C@H](COP(=O)(O)O)[C@@H](O)[C@@H]1O [Fludarabine (phosphate)]
- remaining activity at 3.75 µM ([1]; Well no.=8046, high concentration screen): 98%
- remaining activity at 1.25 µM ([2]; Well no.=8046, low concentration screen): 95.8%

SMILES: O=C1NC(=O)/C(=C/c2ccc(-c3ccc(F)cc3O)o2)S1 [AS-252424]
- remaining activity at 3.75 µM ([1]; Well no.=2947, high concentration screen): 97.2%
- remaining activity at 1.25 µM ([2]; Well no.=2947, low concentration screen): 93.9%

SMILES: Clc1ccc(C(Cn2ccnc2)OCc2ccsc2Cl)c(Cl)c1 (stereo not drawn) [Tioconazole]
- remaining activity at 3.75 µM ([1]; Well no.=1956, high concentration screen): 104%
- remaining activity at 1.25 µM ([2]; Well no.=1956, low concentration screen): 103%

SMILES: Cc1cc(N2C[C@@H](C)N[C@@H](C)C2)ncc1-c1ccc(-c2nc3c(ccn3C)c(=O)[nH]2)cc1 [AZ6102]
- remaining activity at 3.75 µM ([1]; Well no.=8482, high concentration screen): 96.4%
- remaining activity at 1.25 µM ([2]; Well no.=8482, low concentration screen): 97.8%

SMILES: OCCNC1CCCc2c1[nH]c1ccc(-c3ccccc3)cc21 (stereo not drawn) [CASIN]
- remaining activity at 3.75 µM ([1]; Well no.=7373, high concentration screen): 105%
- remaining activity at 1.25 µM ([2]; Well no.=7373, low concentration screen): 102%

SMILES: O=C1NCC2(CCN(CCc3ccccc3)CC2)O1 [Fenspiride hydrochloride]
- remaining activity at 3.75 µM ([1]; Well no.=469, high concentration screen): 103%
- remaining activity at 1.25 µM ([2]; Well no.=469, low concentration screen): 99.1%

SMILES: O=C(O)c1cn(C2CC2)c2cc(N3CCNCC3)c(F)cc2c1=O [Ciprofloxacin]
- remaining activity at 3.75 µM ([1]; Well no.=2263, high concentration screen): 100%
- remaining activity at 1.25 µM ([2]; Well no.=2263, low concentration screen): 99%

SMILES: CC(C)[C@@]1(NC(=O)[C@@H]2C[C@@H]3c4cccc5[nH]cc(c45)C[C@H]3N(C)C2)O[C@@]2(O)[C@@H]3CCCN3C(=O)[C@H](Cc3ccccc3)N2C1=O [Dihydroergocristine]
- remaining activity at 3.75 µM ([1]; Well no.=2098, high concentration screen): 102%
- remaining activity at 1.25 µM ([2]; Well no.=2098, low concentration screen): 104%

SMILES: Cc1ccc(NC(=S)NNc2c([N+](=O)[O-])cc(C(F)(F)F)cc2[N+](=O)[O-])cc1Cl [Kobe0065]
- remaining activity at 3.75 µM ([1]; Well no.=7436, high concentration screen): 106%
- remaining activity at 1.25 µM ([2]; Well no.=7436, low concentration screen): 103%

SMILES: O=C(NCC1CCCCN1)c1cc(OCC(F)(F)F)ccc1OCC(F)(F)F (stereo not drawn) [Flecainide acetate]
- remaining activity at 3.75 µM ([1]; Well no.=709, high concentration screen): 98.3%
- remaining activity at 3.75 µM ([1]; Well no.=1649, high concentration screen): 101%
- remaining activity at 1.25 µM ([2]; Well no.=709, low concentration screen): 98.5%
- remaining activity at 1.25 µM ([2]; Well no.=1649, low concentration screen): 101%

SMILES: CN(C)CCn1cc(S(=O)(=O)c2cccc(F)c2)c2cccnc21 [WAY-208466 dihydrochloride]
- remaining activity at 3.75 µM ([1]; Well no.=6065, high concentration screen): 97.1%
- remaining activity at 1.25 µM ([2]; Well no.=6065, low concentration screen): 98.6%

SMILES: CCCN1CCC[C@@H]2Cc3nc(N)ncc3C[C@H]21 [Quinelorane dihydrochloride]
- remaining activity at 3.75 µM ([1]; Well no.=1413, high concentration screen): 98.2%
- remaining activity at 1.25 µM ([2]; Well no.=1413, low concentration screen): 95.1%

SMILES: COc1cc2nc(N3CCCN(C)CC3)nc(NC3CCN(Cc4ccccc4)CC3)c2cc1OC [BIX01294]
- remaining activity at 3.75 µM ([1]; Well no.=5180, high concentration screen): 99.6%
- remaining activity at 1.25 µM ([2]; Well no.=5180, low concentration screen): 102%

SMILES: CC(C)NC[C@@H](C(=O)N1CCN(c2ncnc3c2[C@H](C)C[C@H]3O)CC1)c1ccc(Cl)cc1 [GDC-0068]
- remaining activity at 3.75 µM ([1]; Well no.=5131, high concentration screen): 106%
- remaining activity at 1.25 µM ([2]; Well no.=5131, low concentration screen): 104%

SMILES: CCn1cc(C(=O)O)c(=O)c2ccc(Cc3ccccc3)nc21 [Amfonelic acid]
- remaining activity at 3.75 µM ([1]; Well no.=446, high concentration screen): 98.5%
- remaining activity at 1.25 µM ([2]; Well no.=446, low concentration screen): 98.4%

SMILES: CCN(CC)CCOC(=O)c1ccc(N)cc1 [Procaine hydrochloride]
- remaining activity at 3.75 µM ([1]; Well no.=1165, high concentration screen): 105%
- remaining activity at 1.25 µM ([2]; Well no.=1165, low concentration screen): 103%

SMILES: CCOC(=O)C1=C(C)NC(C)=C(C(=O)OCC)C1c1ccccc1/C=C/C(=O)OC(C)(C)C [Lacidipine]
- remaining activity at 3.75 µM ([1]; Well no.=1798, high concentration screen): 100%
- remaining activity at 1.25 µM ([2]; Well no.=1798, low concentration screen): 99.9%

SMILES: CCn1c(=O)c2c(C)c(C(=O)N3CCC(O)CC3)sc2n(CCC(F)(F)F)c1=O [BAY-545]
- remaining activity at 3.75 µM ([1]; Well no.=8597, high concentration screen): 104%
- remaining activity at 1.25 µM ([2]; Well no.=8597, low concentration screen): 106%
